This is an account of results in US9402839B2, “Selective targeting agents for mitochondria” (University of Pittsburgh—Of the Commonwealth System of …, priority 2006, dated 2016).

Data set [1] deals with 32D c13 hemopoietic cells. The data set is described as follows: Mass spectrometry analysis of mitochondria isolated from incubated 32D c13 cells. The format is cell-based. The following applies: 100 μM, two hours at 37° C. The procedure: An unconjugated and conjugated NOS antagonist, (AMT, 100 μM) and an unconjugated and conjugated nitroxide derivative (4-amino-TEMPO, 100 μM) were incubated for two hours at 37° C. with 32D c13 hemopoietic cells.
Following incubation, the cells were lysed and the mitochondria isolated for a mass spectrometry analysis where compounds isolated from mitochondria were identified as Na+ adducts. […] Thus, the targeting peptides successfully direct a NOS antagonist and a nitroxide to the mitochondria.

The subject of data set [2] is MECs. The data set is described as follows: Determination of intracellular superoxide radicals (DHE oxidation, flow cytometry) in ActD-treated MECs. The format is cell-based, mouse. The following applies: 10 μM pretreatment, ActD 100 ng/mL; nearly two-fold ActD-induced increase. The procedure: Determination of intracellular superoxide radicals Oxidation-dependent fluorogenic dye, dihydroethidium (“DHE”, Molecular Probes) was used to evaluate intracellular production of superoxide radicals. DHE is cell permeable and, in the presence of superoxide, is oxidized to fluorescent ethidium which intercalates into DNA. The fluorescence of ethidium was measured using a FACscan (BECTON-DICKINSON, Rutherford, N.J.) flow cytometer, equipped with a 488-nm argon ion laser and supplied with the Cell Quest software. Mean fluorescence intensity from 10,000 cells were acquired using a 585-nm bandpass filter (FL-2 channel).

Data set [3] relates to mouse embryonic cells (MEC). The format is cell-based. The conditions noted are these: 10 μM; with and without K3Fe(CN)6. As to the method:
Electron paramagnetic resonance (“EPR”) spectroscopy was used to monitor the cellular delivery of compounds 5a and 5b shown in FIG. 2 in mouse embryonic cells (“MEC”).
The following conditions were used during the EPR-based analysis of the integration and reduction of nitroxide Gramicidin S-peptidyl conjugates in MECs. The MECs at a concentration of 10 million MECs per mL were incubated with 10 μM of 4-AT and compound 5a, respectively. Recovered nitroxide radicals in whole cells, mitochondria, and cytosol fractions were resuspended in phosphate buffer saline (“PBS”) in the presence and absence, respectively, of 2 μM K3Fe(CN)6.

The subject of data set [4] is MECs. The data set is described as follows: ActD-induced apoptosis in MECs (PS externalization, caspase-3 activation, DNA fragmentation). The data set is classed as cell-based, mouse. The conditions noted are these: 10 μM / low concentrations, ActD 100 ng/mL. The text has this: Cells that annexin V-positive and PI-negative were considered apoptotic.
Data set [5] concerns irradiated uroepithelial cells. The data set is described as follows: NO and peroxynitrite production in irradiated uroepithelial cells (microsensor measurements). The data set is classed as cell-based. The procedure:
Further physiological studies were conducted to determine the effects of peptide-targeted AMT and 4-amino-TEMPO on NO and peroxynitrite production in irradiated uroepithelial cells. The cells were cultured in an 8-well slide chamber for 3 days and then microsensor measurements were taken 24 hours after irradiation.
In cells treated with high-dose conjugated 4-amin-TEMPO (100 μM), peroxynitrite production was decreased by approximately 4-fold.

In data set [6] the test system is rat ileal mucosal permeability. The data set is described as follows: Intestinal mucosal permeability assay (FD4 clearance, everted gut sacs) after pressure-controlled hemorrhagic shock. The data set is classed as in vivo. The conditions noted are these: for protection against hemorrhagic shock-induced ileal mucosal hyperpermeability: intraluminal, 0.1-100 μM, 2 h shock. As to the method: Intestinal mucosal permeability assay. Animals were allowed access to water but not food for 24 h prior to the experiment in order to decrease the volume of intestinal contents. The rats were instrumented as described above.
A midline laparotomy was performed and the small intestine was exteriorized from the duodenojejunal junction to the ileocecal valve. A small incision was made on the antimesenteric aspect of the proximal small intestine and saline solution (1.5 ml) was injected. The bowel was ligated proximally and distally to the incision with 4-0 silk (LOOK, Reading, Pa.).
The small intestine was compressed gently in aboral direction along its length to displace intestinal contents into the colon. Starting 5 cm from the ileocecal valve, the ileum was partitioned into six contiguous water-tight segments. Each segment was 3 cm long and was bounded proximally and distally by constricting circumferential 4-0 silk sutures. Care was taken to ensure that the vascular supply to intestine was not compromised, and each segment was well-perfused.
Two randomly selected segments in each rat were injected with 0.3 ml of vehicle and served as “no treatment” controls. In order to fill the segments, a small incision was made and the solution was injected using a Teflon catheter (ABBOCATH 16Ga, ABBOTT LABORATORIES).
The remaining four other segments were injected with solutions containing either 4-hydroxy-2,2,6,6-tetramethylpiperidine-N-oxyl (TEMPOL) or one of the Gramicidin S-based compounds. Four different final concentrations of TEMPOL in normal saline were evaluated: 0.1, 1, 5 and 20 mM. The hemigramicidin-based compounds were dissolved in a mixture of dimethylsulfoxide (DMSO) and normal saline (1:99 v/v) and injected at final concentrations of 0.1, 1, 10 or 100 μM.
After the segments were loaded with saline or the test compounds, the bowel was replaced inside the peritoneal cavity and the abdominal incision was temporarily closed using Backhaus forceps.
After a 5 min stabilization period, hemorrhagic shock was induced by withdrawing blood via the jugular catheter. MAP was maintained at 30±3 mm Hg for 2 hours. The shed blood was re-infused as needed to maintain MAP within the desired range.
After 2 h of shock, the animals were euthanized with an intracardiac KCl bolus injection. The ileum was rapidly excised from the ileocecal valve to the most proximal gut segment. The tips of each segment were discarded. In order to assay caspases 3 and 7 activity and phospholipids peroxidation, mucosa samples were collected from gut segments immediately after hemorrhage and stored at −80° C. For permeability measurements, each segment was converted into an everted gut sac, as previously described by Wattanasirichaigoon et al., see Wattanasirichaigoon, S. et al., Effect of mesenteric ischemia and reperfusion or hemorrhagic shock on intestinal mucosal permeability and ATP content in rats, SHOCK, 12:127-133 (1999).
Briefly, as per the Wattanasirichaigoon protocol referenced above, the sacs were prepared in ice-cold modified Krebs-Henseleit bicarbonate buffer (“KHBB”), pH 7.4. One end of the gut segment was ligated with a 4-0 silk suture; the segment was then everted onto a thin plastic rod. The resulting gut sac was mounted on a Teflon catheter (Abbocath 16GA, Abbot Laboratories) connected to a 3 ml plastic syringe containing 1.5 ml of KHBB. The sac was suspended in a beaker containing KHBB plus fluorescein-isothiocyanate labeled dextran (average molecular mass 4 kDa; FD4; 0.1 mg/ml). This solution was maintained at 37° C., and oxygenated by bubbling with a gas mixture (O2 95%/CO2 5%). After 30 min, the fluid within the gut sac was collected. The samples were cleared by centrifugation at 2000 g for 5 min.
Fluorescence of FD4 in the solution inside the beaker and within each gut sac was measured using a fluorescence spectrophotometer (LS-50, PERKIN-ELMER, Palo Alto, Calif.) at an excitation wavelength of 492 nm and an emission wavelength of 515 nm. […]

For a further data set, the system named is mitochondrial membrane. The data set is described as follows: Quantitative mass spectrometry of AMT peptide conjugates permeating the mitochondrial membrane. The data set is classed as cell-based. The conditions noted are these: for Fmole/l0M mitochondrial protein: relative quantification of conjugate concentration at the target site. The procedure: Quantitative mass spectrometry studies were used to compare the effectiveness of several AMT peptide conjugates in permeating the mitochondrial membrane, specifically XJB-5-234, XJB-5-133, XJB-5-241, and XJB-5-127. The Fmole/10 μM mitochondrial protein ratio provides a relative quantification of conjugate concentration at the target site.

Non-standard residues stand in square brackets, D forms with d. Residues, ends and D or L forms follow the SMILES beside them. *: point of attachment. Orn = NCCC[C@H](N)C(=O)O; Cbz = O=C(OCc1ccccc1)*; Boc = CC(C)(C)OC(=O)*; X1 = CC1CCN=C(N*)S1

In the case of `CC1(C)CC(N)CC(C)(C)N1[O]` [4-AT, 4-amino-TEMPO, reference compound], the “permeation of the mitochondrial membrane (mass spectrometry of isolated mitochondria)” value in data set [1] is “only permeate the mitochondrial membrane with the assistance of the attached GS-derived targeting sequence”. In the data set with MECs [2], the “intracellular superoxide generation in MECs” value is “no effect”. Besides, in data set [3], the “integration and one-electron reduction in MECs (EPR signal increase upon ferricyanide)” value was “did not effectively permeate cells or the mitochondria”. Also, the “protection of MECs against ActD-induced apoptosis” value with MECs [4] is recorded as “afforded no protection”. The “capsaicin-evoked peroxynitrite formation compared with untreated irradiated cells” value in data set [5] (100 μM, 24 hours after irradiation) is given as “comparable amount of peroxynitrite”.

As to `CC1CCN=C(N)S1` (centres unmarked) [AMT, 2-amino-6-methyl-thiazine], the “permeation of the mitochondrial membrane (mass spectrometry of isolated mitochondria)” value in data set [1] is listed as “do not enter the mitochondria membrane in substantial quantities”. In addition, the “radioprotectant effectiveness compared with 4-amino-TEMPO” value in data set [5] is listed as “more effective radioprotectant”. Moreover, in data set [5] (10 μM, 24 hours after irradiation), the “NO induced peroxynitrite formation” value was “comparable amount of peroxynitrite”.

Regarding `CC1(C)CC(O)CC(C)(C)N1[O]` [TEMPOL, 4-hydroxy-2,2,6,6-tetramethylpiperidine-N-oxyl, reference compound], in data set [6] (intraluminal, 0.1, 1, 5 and 20 mM tested), the “concentrations in the gut lumen that ameliorated hemorrhagic shock-induced ileal mucosal hyperpermeability” value is listed as > 1 mM.

With `CC(C)C[C@H](NC(=O)OC(C)(C)C)C(=O)N[C@H](Cc1ccccc1)C(=O)N1CCC[C@H]1C(=O)N[C@H](C(=O)N[C@@H](CCCNC(=O)OCc1ccccc1)C(=O)NC1=NCCC(C)S1)C(C)C` (stereo partly drawn) [XJB-5-127, Boc-Leu-^DPhe-Pro-Val-Orn(Cbz)-AMT] (Boc-L[dF]PV[Orn](Cbz)-X1), in data set [6], the “protection against hemorrhagic shock-induced ileal mucosal hyperpermeability” value is given as “Ineffective”. The “biological activity compared with XJB-5-241” value with mitochondrial membrane was “less biologically active”.

Take `CC(C)C[C@@H](/C=C/[C@H](Cc1ccccc1)C(=O)N1CCC[C@H]1C(=O)N[C@H](C(=O)N[C@@H](CCCNC(=O)OCc1ccccc1)C(=O)NC1=NCCC(C)S1)C(C)C)NC(=O)OC(C)(C)C` (stereo partly drawn) [XJB-5-133, Boc-Leu-ψ[(E)-CH═CH]-^DPhe-Pro-Val-Orn(Cbz)-AMT]: the “protection against hemorrhagic shock-induced ileal mucosal hyperpermeability” value in data set [6] is listed as “did not afford protection”. In the data set on mitochondrial membrane, the “biological activity compared with XJB-5-241” value was “less biologically active” and the Fmole/l0M mitochondrial protein is given as 89.8 Fmole/l0M mitochondrial protein.

For the compound `CC(C)C[C@@H](/C=C/[C@H](Cc1ccccc1)C(=O)NC1=NCCC(C)S1)NC(=O)OC(C)(C)C` (stereo partly drawn) [XJB-5-234, Boc-Leu-ψ[(E)-CH═CH]-^DPhe-AMT], the Fmole/l0M mitochondrial protein in the data set on mitochondrial membrane is given as 1.45 Fmole/l0M mitochondrial protein.

Regarding `C/C(=C\[C@H](Cc1ccccc1)C(=O)N1CCC[C@H]1C(=O)N[C@H](C(=O)N[C@@H](CCCNC(=O)OCc1ccccc1)C(=O)NC1=NCCC(C)S1)C(C)C)[C@H](CC(C)C)NC(=O)OC(C)(C)C` (stereo partly drawn) [XJB-5-241, Boc-Leu-ψ[(E)-C(CH3)═CH]-^DPhe-Pro-Val-Orn(Cbz)-AMT], in the data set on mitochondrial membrane (among XJB-5-234, XJB-5-133, XJB-5-241 and XJB-5-127), the “ranking of conjugates in permeating the mitochondrial membrane” value is “most efficacious conjugate”. The Fmole/l0M mitochondrial protein with mitochondrial membrane is 103.3 Fmole/l0M mitochondrial protein.
